Patent publication US9078928B2, “Conjugated molecules comprising a peptide derived from the CD4 receptor coupled to a polyanionic polypeptide for the treatment of AIDS” (Institut Pasteur, priority 2011, dated 2015)

Assays:
Assay type in all cases: cell-based
clinical HIV-1 isolates = experiment: Antiviral assay on the series of clinical HIV-1 isolates, summary in text (Example 4); conditions: primary strains of Table 5
Text: The antiviral assay was extended to a series of more clinically relevant primary strains, including 92UG029, SF162, 92US723, 96USHIPS4, 92HT599 and 98IN017.
Phytohemagglutinin (PHA)-P-activated PBMCs were infected either with the reference lymphotropic HIV-1/LAI strain (Barre-Sinoussi, et al., 1983) or with the reference macrophage-tropic HIV-1/Ba-L strain (Gartner, et al., 1986). These viruses were amplified in vitro with PHA-P-activated blood mononuclear cells. Viral stocks (including clinical isolates) were titrated using PHA-P-activated PBMCs, and 50% tissue culture infectious doses (TCID50) were calculated using Kärber's formula (Kärber, 1931). Viruses (125 TCID50) were incubated for 30 min with five concentrations (1:5 dilutions between 500 nM and 320 pM) of each of the molecules to be tested and added to 150 000 PBMCs (m.o.i.˜0.001). […] Viral replication was measured by quantifying reverse transcriptase (RT) activity in the cell culture supernatants using the Lenti RT Activity Kit (Cavisi) and AZT was used as reference anti-HIV-1 molecule. In parallel, cytotoxicity was evaluated on day 7 in uninfected PHA-P-activated PBMC using a colorimetric methyl-tetrazolium salt (MTS/PMS) assay (Promega). Experiments were performed in triplicate and 50, 70 and 90% effective doses (ED) were calculated using SoftMaxPro software.

X4-tropic HIV-1-LAI = experiment: Antiviral assay in PHA-P-activated PBMC, RT activity in supernatant at day 7 (Example 3); conditions: mean of triplicate; for ED70 VIH-1-LAI(X4) Average: effective dose to inhibit 70% of HIV-1 replication; for ED90 VIH-1-LAI(X4) Average: effective dose to inhibit 90% of HIV-1 replication
Protocol: The antiviral experiment have been performed as described in WO/2009/098147 and Nature Chemical Biology, 2009, 5(10), 743-748.
(§1) Briefly, the X4-tropic HIV-1-LAI (Barre-Sinoussi, Science 220, 868-71, 1983) or the R5-tropic HIV-1/Ba-L (Gartner et al, Science 233, 215-9, 1986) strains were amplified and titrated in vitro on Phytohemaglutinin-P (PHA-P)-activated peripheral blood mononuclear cells (PBMC). Tissue culture infectious doses were calculated using Kärber's formula (Kärber, Arch. Exp. Path. Pharmak. 162, 480-483, 1931). For the antiviral assay, PHA-P-activated PBMC were pre-treated for 30 minutes with six concentrations of each drug (1:5 dilutions between 0.5 μM and 160 pM) and infected with one hundred 50% tissue culture infectious doses (TCID50) of either the X4-tropic LAI or R5-tropic Ba-L strain. Drugs were maintained throughout the culture, and cell supernatants were collected at day 7 post-infection and stored at −20° C. Azidothymidine (AZT) was used in these experiments as an internal control. Viral replication was measured by quantifying reverse transcriptase (RT) activity in cell culture supernatants using the RetroSys HIV RT kit (Innovagen). In parallel, cytotoxicity of the samples was evaluated in uninfected PHA-P-activated PBMC by a methyltetrazolium salt (MTT) assay on day 7. Experiments were performed in triplicate and 50, 70 and 90% effective doses and cytotoxic doses were calculated using SoftMaxPro software.
PHA-P-activated PBMC were treated with each of the drug under investigation (1:5 dilutions between 0.5 μM and […]) and infected with 100 TCID50 of either HIV-1-LAI (X4 tropic) or /Ba-L (R5 tropic) strain. Molecules and viruses were maintained throughout the culture, and cell supernatants were collected at day 7 post-infection from which reverse transcriptase activity was quantified. Experiments were performed in triplicate and 50, 70 and 90% effective doses (ED), in nM (±S.D.) were calculated using SoftMaxPro software.

R5-tropic HIV-1/Ba-L = experiment: as above; conditions: mean of triplicate; for ED70 VIH-1/Ba-L(R5) Average: effective dose to inhibit 70% of HIV-1 replication; for ED90 VIH-1/Ba-L(R5) Average: effective dose to inhibit 90% of HIV-1 replication
Protocol: as §1, with “For the antiviral assay, PHA-P-activated PBMC were pre-treated for 30 minutes with six concentrations of each drug (1:5 dilutions between 0.5 μM and 160 pM) and infected with one hundred 50% tissue culture infectious doses (TCID50) of either the X4-tropic LAI or R5-tropic Ba-L strain.” left out
Molecules and viruses were maintained throughout the culture, and cell supernatants were collected at day 7 post-infection from which reverse transcriptase activity was quantified. Experiments were performed in triplicate and 50, 70 and 90% effective doses (ED), in nM (±S.D.) were calculated using SoftMaxPro software.

Row | Substance | antiviral activity against clinical isolates (in words) (clinical HIV-1 isolates) | ED70 VIH-1-LAI(X4) Average (X4-tropic HIV-1-LAI) | ED90 VIH-1-LAI(X4) Average (X4-tropic HIV-1-LAI) | ED70 VIH-1/Ba-L(R5) Average (R5-tropic HIV-1/Ba-L) | ED90 VIH-1/Ba-L(R5) Average (R5-tropic HIV-1/Ba-L)
1 | NH2-(CH2)3-CO-S-YSO3-D-YSO3-S-YSO3-D-YSO3-S-YSO3-D-YS03-S (SXDXSXDXSXDXS; non-natural residues) [P3YSO3] | only poorly active or inactive |  |  |  | 
2 | NH2-(CH2)3-CO-S-Asu-D-Asu-S-Asu-D-Asu-F-Asu-F-D-Asu-S [P3Asu] |  | >500 nM | >500 nM | >500 nM | >500 nM
3 | NH2-(CH2)3-CO-S-pF-D-pF-S-pF-D-pF-S-pF-D-pF-S [P3pF] |  | >500 nM | >500 nM | >500 nM | >500 nM
